Experimental findings from paper PMC11500415, “Chemical inhibition of stomatal differentiation by perturbation of the master-regulatory bHLH heterodimer via an ACT-Like domain” (Nature Communications, 2024) are described below.

Values joined by “and” are separate entries in the source; they are usually repeats but may differ in a detail not shown here. Equal values may be shown once.

Common to all, as to assay type: cell-based
One assay addresses T1, SCRM-SPCH heterodimer (Arabidopsis thaliana, UniProt Q700C7).
T1 construct: truncated SPCH and FAMA proteins lacking their N-terminal domain were used in yeast; expressed in transfected cells; host or cells: yeast strain AH109
T1 sequence (Q700C7 98-364 limits assumed): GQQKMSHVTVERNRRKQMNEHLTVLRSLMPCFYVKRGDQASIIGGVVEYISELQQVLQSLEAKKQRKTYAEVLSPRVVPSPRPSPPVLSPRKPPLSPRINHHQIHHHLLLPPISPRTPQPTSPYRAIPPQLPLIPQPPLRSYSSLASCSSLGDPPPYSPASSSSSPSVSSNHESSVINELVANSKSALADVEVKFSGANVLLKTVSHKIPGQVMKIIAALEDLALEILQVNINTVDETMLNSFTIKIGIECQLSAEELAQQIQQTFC
The assay is described as follows: Y2H growth and quantitative α-galactosidase assay. The conditions noted are these: yeast SPCH∆N+SCRM, media -WLH, replicates #1-#3. As for the experimental part:
(§1) Y2H assays were performed using the Matchmaker^TM Two-Hybrid System (Clontech). Bait (pGBKT7) and prey (pGADT7) constructs were co-transformed into the yeast strain AH109 using Frozen-EZ Yeast Transformation II Kit (Zymo Research, T2001). The resulting transformants were spotted on SD ( − Leu, −Trp) and SD ( − Trp, −Leu, −His) selection media containing different concentrations of 3-amino-1,2,4-triazole (Sigma, A8056) as previously reported. Quantitative α-galactosidase assay was also performed according to manufactural instruction (Clontech). Briefly, the transformants were incubated in 2 ml SD medium with 0, 10, 50 100 μM Stomidazolone (3) or SIM3* (7) with rotary shake (220 rpm) at 30 °C overnight. The cultured media containing yeast were transferred to microtubes and centrifuged to obtain the supernatant. The colorimetric assay was performed by incubating 8 μL of supernatant with 24 μL Assay Buffer that contains 0.5 M sodium acetate (pH 4.5) (Nakalai tesque, 31137-25): 100 mM p-nitrophenyl α-D-Galactopyranoside Solution (Sigma N0877) = 2:1 (v/v) at 30 °C for 60 min, then terminated by adding 960 μL 1X Stop Solution (0.1 M sodium carbonate, Fujifilm Wako 195-01582). After OD410 was recorded, α-galactosidase units were calculated according to the protocol (Clontech, P3024-1).

A further assay concerns the target T2, SCRM-FAMA heterodimer (Arabidopsis thaliana, UniProt Q56YJ8).
T2 construct: truncated SPCH and FAMA proteins lacking their N-terminal domain were used in yeast; expressed in transfected cells; host or cells: yeast strain AH109
The assay is described as follows: Y2H growth and quantitative α-galactosidase assay. The conditions noted are these: yeast FAMA∆N+SCRM, media -WLH, replicates #1-#3. As for the experimental part: as §1

For another assay, the target named is T3, SCRM-MUTE heterodimer (Arabidopsis thaliana, UniProt Q9M8K6).
T3 construct: expressed in transfected cells; host or cells: yeast strain AH109
T3 sequence (Q9M8K6 1-202): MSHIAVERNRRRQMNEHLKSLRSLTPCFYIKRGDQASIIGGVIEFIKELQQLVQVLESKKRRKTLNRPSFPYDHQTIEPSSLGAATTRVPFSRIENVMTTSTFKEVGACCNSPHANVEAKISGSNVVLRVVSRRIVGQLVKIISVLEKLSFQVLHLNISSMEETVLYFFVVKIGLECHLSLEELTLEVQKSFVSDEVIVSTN
The assay is described as follows: Y2H growth and quantitative α-galactosidase assay. To be noted: yeast MUTE+SCRM, media -WLH, replicates #1-#3. As for the experimental part: as §1

The target in another assay is T4, MUTE+AD (control yeast) (Arabidopsis thaliana, UniProt Q9M8K6).
T4 construct: expressed in transfected cells; host or cells: yeast strain AH109
T4 sequence (Q9M8K6 1-202): T3 sequence (Q9M8K6 1-202)
The assay is described as follows: Y2H quantitative α-galactosidase assay, control yeast MUTE+AD. The conditions noted are these: media -WL, replicates #1-#3. An excerpt: Supplement 41467_2024_53214_MOESM7_ESM.xlsx, sheet "Fig.S5" | column: Meristemoid

Another assay deals with T5, DB+SCRM (control yeast) (Arabidopsis thaliana, UniProt Q9LSE2).
T5 construct: expressed in transfected cells; host or cells: yeast strain AH109
T5 sequence (Q9LSE2 1-494): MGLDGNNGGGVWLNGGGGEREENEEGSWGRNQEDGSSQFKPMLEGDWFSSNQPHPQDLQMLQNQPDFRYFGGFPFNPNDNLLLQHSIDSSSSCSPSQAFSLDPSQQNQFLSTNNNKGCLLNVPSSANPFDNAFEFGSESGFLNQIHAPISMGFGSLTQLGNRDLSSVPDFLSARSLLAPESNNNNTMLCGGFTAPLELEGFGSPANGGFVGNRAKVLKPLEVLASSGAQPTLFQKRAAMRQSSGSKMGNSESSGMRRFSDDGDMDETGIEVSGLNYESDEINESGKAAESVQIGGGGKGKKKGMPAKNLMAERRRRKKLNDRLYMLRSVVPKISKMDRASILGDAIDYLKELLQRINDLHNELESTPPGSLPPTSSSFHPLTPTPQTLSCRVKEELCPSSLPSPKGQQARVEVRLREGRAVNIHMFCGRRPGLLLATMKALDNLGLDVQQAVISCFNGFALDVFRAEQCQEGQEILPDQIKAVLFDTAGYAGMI
The assay is described as follows: Y2H quantitative α-galactosidase assay, control yeast DB+SCRM. To be noted: media -WL, replicates #1-#3.

T2 sequence (Q56YJ8 190-414, one chain of several): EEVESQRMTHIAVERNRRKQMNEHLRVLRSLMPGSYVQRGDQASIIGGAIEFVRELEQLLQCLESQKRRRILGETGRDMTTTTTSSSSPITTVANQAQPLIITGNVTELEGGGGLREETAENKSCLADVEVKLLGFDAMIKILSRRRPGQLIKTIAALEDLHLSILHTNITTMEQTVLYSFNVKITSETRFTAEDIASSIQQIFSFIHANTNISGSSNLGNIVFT

For the compound `Cc1nc(-c2ccccc2)c(NS(=O)(=O)c2ccccc2)o1` [SIM3*], the a-galactosidase is 4.934 milliunits /(ml x cell) and 5.0596 milliunits /(ml x cell) and 4.687 milliunits /(ml x cell) at SCRM-SPCH heterodimer (10 µM); 4.693 milliunits /(ml x cell) and 5.268 milliunits /(ml x cell) and 5.059 milliunits /(ml x cell) at SCRM-SPCH heterodimer (50 µM); 6.071 milliunits /(ml x cell) and 5.524 milliunits /(ml x cell) and 5.145 milliunits /(ml x cell) on SCRM-SPCH heterodimer (100 µM); 9.596 milliunits /(ml x cell) and 8.612 milliunits /(ml x cell) and 10.2528 milliunits /(ml x cell) on SCRM-FAMA heterodimer (10 µM); 8.883 milliunits /(ml x cell) and 8.135 milliunits /(ml x cell) and 9.605 milliunits /(ml x cell) on SCRM-FAMA heterodimer (50 µM); 8.9516 milliunits /(ml x cell) and 9.181 milliunits /(ml x cell) and 8.943 milliunits /(ml x cell) on SCRM-FAMA heterodimer (100 µM). The a-galactosidase was 6.318 milliunits /(ml x cell) and 6.221 milliunits /(ml x cell) and 6.24 milliunits /(ml x cell) on SCRM-MUTE heterodimer (10 µM); 7.176 milliunits /(ml x cell) and 6.898 milliunits /(ml x cell) and 6.187 milliunits /(ml x cell) on SCRM-MUTE heterodimer (50 µM); 6.801 milliunits /(ml x cell) and 6.285 milliunits /(ml x cell) and 6.027 milliunits /(ml x cell) at SCRM-MUTE heterodimer (100 µM); 0.05913 milliunits /(ml x cell) and 0.1128 milliunits /(ml x cell) and 0.06646 milliunits /(ml x cell) on MUTE+AD (control yeast) (10 µM); 0.06252 milliunits /(ml x cell) and 0.06546 milliunits /(ml x cell) and 0.1442 milliunits /(ml x cell) on MUTE+AD (control yeast) (50 µM); 0.1449 milliunits /(ml x cell) and 0.1698 milliunits /(ml x cell) and 0.1689 milliunits /(ml x cell) at MUTE+AD (control yeast) (100 µM). For the same compound, the a-galactosidase was 0.04682 milliunits /(ml x cell) and 0.1024 milliunits /(ml x cell) and 0.1038 milliunits /(ml x cell) on DB+SCRM (control yeast) (10 µM); 0.1114 milliunits /(ml x cell) and 0.04747 milliunits /(ml x cell) and 0.1243 milliunits /(ml x cell) on DB+SCRM (control yeast) (50 µM); 0.1293 milliunits /(ml x cell) and 0.1919 milliunits /(ml x cell) and 0.06561 milliunits /(ml x cell) on DB+SCRM (control yeast) (100 µM).
